Results on one compound are retold here after patent publication US20210220374A1, “METHODS OF TREATING TE[…]” (Clarus Therapeutics, Inc., priority 2013, published 2021).

Holding throughout (type): in vivo, hypogonadal men
A short description of data set [1]: Example 3 four-week study of Formulation B (LOT-BB). The protocol: The study was designed as an open-label, repeat dose, pharmacokinetic study.
For each subject, the “Day 28” serial PK sampling day was scheduled for Day 32 of the study. […] Doses were administered as capsules, with subjects instructed to take doses 30 minutes after initiation of meals (breakfast and dinner).

The nature of data set [2]: Example 1 single-day pharmacokinetic study of Formulation B. Particulars: 200 mg T equivalents BID with food. As for the experimental part:
The study was designed as an open-label, single-day dosing, sequential, cross-over, pharmacokinetic study.
The doses were administered as capsules to subjects five minutes after a meal (breakfast for QD, and breakfast and dinner for BID).

Data set [3] is described as follows: Seven-day repeat-dose pharmacokinetic study (study LOT-A), TU BID. Particulars: for Baseline-corrected Cavg / Tmax: serum T. The protocol:
The probability model was based on the pharmacokinetic results obtained from the hypogonadal patient population that participated in the two multi-dose TU treatments in study LOT-A. As noted previously, 29 hypogonadal males participated in the study, 28 of them completed Treatment Period 1 (300 mg T, as TU, BID) and 24 of them completed Treatment Period 3 (200 mg T, as TU, BID).
Formulation B was studied for its acute tolerability and steady-state serum pharmacokinetic profile at two doses administered twice-daily to hypogonadal men. The study was designed as an open-label, repeat dose, cross-over, pharmacokinetic study (with food effect examined in one arm).
Twenty nine (29) hypogonadal men were enrolled after giving written informed consent, 24 of which completed the study. Each subject who completed the study received a regimen of Formulation B as follows: […]
1. 7 daily doses of 600 mg T as TU BID (300 mg/dose), i.e., 3 capsules/dose 2. 8 daily doses of 400 mg T as TU BID (200 mg/dose)
Doses were administered as capsules to subjects 30 minutes after initiation of meals (breakfast and dinner), except for Day 8, when the morning dose was administered fasting.

The nature of data set [4]: Example 4 food effects study of Formulation B. As for the experimental part:
Subjects were randomized to receive the drug in the fasting state or 30 minutes after consumption of meals containing ˜800 calories with specific amounts of fat (wt %): very low fat (6-10%); low fat (20%); “normal” diet fat (30%); or high fat (50%). The “normal” diet was, a priori, established as the comparator (i.e., reference diet) for purposes of statistical comparisons. Serial blood samples were collected for a total of 24 hours after drug administration to determine serum testosterone and dihydrotestosterone (DHT) levels by liquid chromatography-mass spectroscopy (LC/MS/MS).

A word on the Tmax: it is the time at which the peak concentration occurs. Consider `CCCCCCCCCCC(=O)O[C@H]1CC[C@H]2[C@@H]3CCC4=CC(=O)CC[C@]4(C)[C@H]3CC[C@]12C` [TU, testosterone undecanoate], for which, in data set [1] (200 mg T BID as TU), the “Time to T steady-state” value is 5 to 7 days. Moreover, in data set [1] (200 mg T BID as TU, 28 days), the “Subjects with Cmax greater than 1500 ng/dL” value stood at 13.3%. In addition, in data set [1] (200 mg T BID as TU, 28 days, no dose adjustment), the “Subjects with serum T Cavg within the normal range” value is on record as 86.7%. In addition, the “Endogenous serum T baseline concentration, mean” value in data set [1] (after 28 days of treatment) is listed as 108 ng/dL. Further, in data set [1] (after discontinuing treatment), the “Time for DHT concentrations to return to pretreatment levels” value was not above 36 h. Moreover, the “Time for E2 concentrations to return to pretreatment levels” value in data set [1] (after discontinuing treatment) was not above 36 h. The “Continued treatment required for maximal suppression of endogenous T production” value in data set [1] (in vivo) was 5 to 7 days. In addition, the “E2 mean Cavg” value in data set [1] (steady state) is 0.022 ng/mL. Moreover, in data set [1] (steady state), the “E2 mean Cmin” value was determined as 0.0155 ng/mL. Further, in data set [2], the “Subjects achieving a serum T Cavg above 300 ng/dL” value came to 75%. The “Decrease in serum T exposures (Cmax and AUC)” value in data set [3] (fasting conditions vs meal) is listed as “greater than 50%”. Further, the “DHT concentrations as percent of T concentrations” value in data set [3] (in vivo) was 11-34%. Besides, the “Pre-dose steady-state estradiol concentrations” value in data set [3] (in vivo) lay within 20 to 30 pg/mL. Moreover, the “Mean baseline T concentration (endogenous T production)” value in data set [3] (prior to Treatment Period 2, after washout) stood at 152 ng/dL; in data set [3] (prior to Treatment Period 3, after washout), 139 ng/dL; in data set [3] (prior to Treatment Period 4, after washout), 145 ng/dL. Further, the results for the “Baseline-corrected Cavg” value in data set [3] (200 mg BID) and in data set [3] (300 mg BID) were 379 ± 255 and 586 ± 330, respectively. Moreover, the Tmax was determined as 4.5 ± 2.1 h in data set [3] (300 mg BID, AM dose) and 17.9 ± 2.6 h in data set [3] (300 mg BID, PM dose). In data set [3] (simulated 24-hour profile from 12-hour data, 200 mg T (as TU) BID, fed), the “Subjects with serum T Cavg in the eugonadal range over 24 hours” value is 77%. Moreover, in data set [4] (high-fat vs normal-fat meal), the “Difference in serum T response” value is listed as less than 30%. Further, the “90% confidence interval, serum T PK parameters” value in data set [4] (low-fat vs normal fat diet, single 300 mg T dose) was 85-125%.
